Test results from patent US9481674B1, “Dihydropyrrolopyridine inhibitors of ROR-gamma” (Vitae Pharmaceuticals, Inc., priority 2016, dated 2016).

What was measured:
[1] = biological target: T1, hERG potassium ion channel (Homo sapiens, UniProt Q12809); assay: hERG Assay (Assay 4); type: cell-based; conditions: HEK293 cells stably transfected with hERG cDNA, pH 7.4, comparator compounds, Table 4, compound at 3 μM
T1 construct: expressed in transfected cells; host or cells: HEK293
Procedure: Compounds of the invention were tested in vitro against the hERG (human ether-à-go-go-related gene) potassium ion channel (a surrogate for IKr, the rapidly activating delayed rectifier cardiac potassium ion channel).
The buffer was HEPES-buffered physiological saline (HB-PS) solution composed of: 137 mM NaCl, 4.0 mM KCl, 1.8 mM CaCl2, 1 mM MgCl2, 10 mM HEPES, 10 mM glucose, pH adjusted to 7.4 with NaOH, and 0.3% DMSO. Chemicals used in solution preparation were purchased from Sigma-Aldrich (St. Louis, Mo.), unless otherwise noted, and were of ACS reagent grade purity or higher.
HEK (human embryonic kidney) 293 cells were stably transfected with hERG cDNA.
For the patch clamp experiment, onset and steady state inhibition of hERG potassium current was measured using a pulse pattern with fixed amplitudes (depolarization: +20 mV for 2 s; repolarization: −50 mV for 2 s) repeated at 10 s intervals from a holding potential of −80 mV. Peak tail current was measured during the 2 s step to −50 mV. A steady state was maintained for at least 30 seconds before applying compound or positive control (cisapride). Peak tail currents were measured until a new steady state was achieved.
Data acquisition and analyses were performed using the suite of pCLAMP® (ver. 8.2) programs (MDS Analytical Technologies, Sunnyvale, Calif.). […]

IL-17A production = assay: Human Whole Blood Assay (Assay 3); type: cell-based; conditions: comparator compounds, Table 4, IL-17A, read-out: 50% Human Whole Blood Assay IC50, nM^B (Assay 3)
Procedure: Human Whole Blood Assay (Assay 3)
Compounds of the invention were tested in the human whole blood assay to measure their effects on IL-17A production as determined by cytokine secretion into 50% blood/media supernatant. Mixtures of sodium heparinized whole blood (isolated from healthy human donors) and the T cell activator CytoStim, in the presence or absence of compound, were plated in sterilized, tissue culture-treated 24-well plates. Specifically, the mixtures in each well were as follows: (1) 500 μL of whole blood, (2) 250 μL of compound diluted into RPMI-1640 media containing 10% HyClone™ FCS (Thermo Fisher Scientific, Waltham, Mass.), Gibco® Pen/Strep and Gibco® NEAA (Life Technologies, Grand Island, N.Y.), and (3) 250 μL of CytoStim (Miltenyi Biotech, Germany) diluted to a final concentration of 10 μL/mL in complete cell culture medium.
IL-17A cytokine expression was determined using 25 μL of the transferred supernatant diluted with 25 μL of Diluent 43 from the Human IL-17A V-PLEX™ kit (cat. # K151RFD-4, Meso Scale Discovery, Rockville, Md.). The assay was performed according to the manufacturer's instructions using included reagents. The IL-17A V-PLEX™ plates were read using the Meso Scale Discovery Imager (Model 1200).

T1 sequence (Q12809 whole entry): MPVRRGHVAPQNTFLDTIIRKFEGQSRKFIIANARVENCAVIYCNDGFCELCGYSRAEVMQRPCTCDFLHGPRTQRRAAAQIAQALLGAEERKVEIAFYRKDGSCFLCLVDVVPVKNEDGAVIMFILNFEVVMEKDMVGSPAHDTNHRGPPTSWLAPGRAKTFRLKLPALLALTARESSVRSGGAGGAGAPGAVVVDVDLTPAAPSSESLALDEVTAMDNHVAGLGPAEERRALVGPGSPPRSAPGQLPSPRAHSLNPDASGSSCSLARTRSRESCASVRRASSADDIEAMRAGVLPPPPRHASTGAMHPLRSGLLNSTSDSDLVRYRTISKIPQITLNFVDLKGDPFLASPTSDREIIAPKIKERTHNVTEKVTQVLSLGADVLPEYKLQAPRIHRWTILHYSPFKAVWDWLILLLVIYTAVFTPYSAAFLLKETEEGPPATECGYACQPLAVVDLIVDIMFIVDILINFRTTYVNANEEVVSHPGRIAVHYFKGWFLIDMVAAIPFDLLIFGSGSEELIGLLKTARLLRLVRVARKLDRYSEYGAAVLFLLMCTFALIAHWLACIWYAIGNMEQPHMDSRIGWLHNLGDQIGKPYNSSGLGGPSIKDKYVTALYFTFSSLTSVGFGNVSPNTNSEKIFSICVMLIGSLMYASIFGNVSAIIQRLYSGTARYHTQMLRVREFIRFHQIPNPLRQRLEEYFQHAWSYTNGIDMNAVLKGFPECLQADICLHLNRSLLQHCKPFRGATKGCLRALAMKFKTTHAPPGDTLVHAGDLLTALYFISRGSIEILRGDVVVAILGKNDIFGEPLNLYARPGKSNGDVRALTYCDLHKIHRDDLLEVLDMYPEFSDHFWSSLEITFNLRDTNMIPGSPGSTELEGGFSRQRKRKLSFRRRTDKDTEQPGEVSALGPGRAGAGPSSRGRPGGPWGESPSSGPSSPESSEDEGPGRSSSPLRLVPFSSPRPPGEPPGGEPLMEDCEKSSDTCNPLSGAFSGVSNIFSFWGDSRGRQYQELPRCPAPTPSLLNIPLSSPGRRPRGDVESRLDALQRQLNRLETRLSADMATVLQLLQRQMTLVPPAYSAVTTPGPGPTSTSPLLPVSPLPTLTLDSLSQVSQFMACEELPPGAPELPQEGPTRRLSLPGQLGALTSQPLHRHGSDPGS

SMILES | inhibition at 3 µM [1] [%] | IC50 (IL-17A production) [nM]
CCS(=O)(=O)c1ccc(CNC(=O)c2cnc3c(c2)CN(C[C@H]2CC[C@H](C(F)(F)F)CC2)[C@H]3C(C)C)cc1 | 57 | –
CCS(=O)(=O)c1ccc(CNC(=O)c2cnc3c(c2)CN(C[C@H]2CC[C@H](C(F)(F)F)CC2)[C@H]3C(C)C)nc1 [reference compound] | 45.4 | > 200
